According to PubChem BioAssay (NCI):
“And” between values parts separate entries of the source, which are not always exact repeats. Identical values can stand only once.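 96-well plates; 48 h exposure; 5 concentrations. Endpoints by linear interpolation between flanking doses. Not reached: highest tested concentration assigned. GI50: concentration for 50% inhibition of growth. TGI: total growth inhibition.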

Assays:
Assay in all cases: NCI anticancer screen, dose series, 48 h
[1] = tested on: HCC-2998 colon
[2] = tested on: KM12 colon
[3] = tested on: SK-MEL-5 melanoma
[4] = tested on: K-562 leukemia
[5] = tested on: HL-60(TB) leukemia
[6] = tested on: U251 CNS
[7] = tested on: RXF 393 renal
[8] = tested on: OVCAR-5 ovarian
[9] = tested on: CAKI-1 renal
[10] = tested on: SK-MEL-2 melanoma

Row | SMILES | GI50 [1] | TGI [1] | GI50 [2] | TGI [2] | GI50 [3] | TGI [3] | GI50 [4] | TGI [4] | GI50 [5] | TGI [5] | GI50 [6] | TGI [6] | GI50 [7] | TGI [7] | GI50 [8] | TGI [8] | GI50 [9] | TGI [9] | GI50 [10] | TGI [10]
1 | Cn1cc(-c2csc(-c3cn(C(=O)OC(C)(C)C)c4ccccc34)n2)c2cccnc21 | 10.2 µM | 25.3 µM | 2.78 µM | 9.57 µM | 2.56 µM | 13.2 µM | 2.02 µM | > 100 µM | 2.61 µM | 21.9 µM | 4.23 µM | 16.3 µM | 2.26 µM | 9.29 µM | 14.6 µM | 29.9 µM | 3.06 µM | 24.8 µM | 13.8 µM | 36.3 µM
2 | NC1=C(O)C(=O)C(c2c[nH]c3ccc(OCc4ccccc4)cc23)O1 (stereo not given) |  | > 76.3 µM |  | > 100 µM |  | > 100 µM |  | > 100 µM |  | > 100 µM |  | > 100 µM |  | > 100 µM |  | > 100 µM |  | > 100 µM |  | > 100 µM
3 | CCOC(=O)CC(C)C1(C=O)CCCCC1=O (stereo not given) |  | > 100 µM |  | > 100 µM |  | > 100 µM |  | > 100 µM |  | > 100 µM |  | > 100 µM |  | > 100 µM |  | > 100 µM |  | > 100 µM |  | > 100 µM
4 | CCOC(=O)N(O)c1ccc(/C=C/c2ccccc2)cc1 | 7.03 µM | 21.3 µM | 10.6 µM | 36.6 µM | 3.85 µM | 14.5 µM | 5.88 µM | > 100 µM | 8.59 µM | 40.5 µM | 4.72 µM | 29.2 µM | 13.2 µM | > 90.4 µM | 0.737 µM | 9.71 µM | 2.7 µM | 21.4 µM | 8.62 µM | 28.6 µM
5 | O=C1C=CC(=O)c2c(O)c(N(CCCl)CCCl)c(Cl)c(O)c21 |  | > 10 µM |  | > 9.63 µM |  | 7.41 µM |  | > 10 µM |  | > 10 µM |  | > 9.09 µM |  | > 6.69 µM |  | > 9.1 µM |  | 6.51 µM |  | > 7.91 µM
6 | N=C1C=C(N)C(=O)c2ccccc21 | 1.39 µM | 2.76 µM | 0.322 µM | 1.26 µM | 0.174 µM | 0.319 µM | 0.231 µM | 0.556 µM | 0.207 µM | 0.606 µM | 0.183 µM | 0.339 µM | 0.182 µM | 0.337 µM | 0.184 µM | 0.373 µM | 0.187 µM | 0.379 µM | 0.189 µM | 0.373 µM
7 | CN1C/C(=C\c2ccc(C(=O)O)cc2)C(=O)/C(=C/c2ccc(C(=O)O)cc2)C1 |  | > 100 µM |  | > 100 µM |  | > 100 µM |  | > 100 µM |  | > 100 µM |  | > 100 µM |  | > 100 µM |  | > 100 µM |  | > 100 µM |  | > 100 µM
8 | NC1=Nc2ccccc2Sc2ccccc21 |  | > 100 µM |  | > 100 µM |  | > 100 µM |  | > 100 µM |  | > 100 µM |  | > 100 µM |  | > 100 µM |  | > 100 µM |  | > 100 µM |  | > 100 µM
9 | CC[C@@H](C(=O)[C@@H](C)[C@@H](O)[C@H](C)[C@@H]1O[C@@H]([C@@H](CC)C(=O)O)CC[C@@H]1C)[C@H]1O[C@]2(C=C[C@@H](O)[C@]3(CC[C@@](C)([C@H]4CC[C@](O)(CC)[C@H](C)O4)O3)O2)[C@H](C)C[C@@H]1C | 0.166 µM | 13 µM | 1.18 µM | 15.7 µM | 0.401 µM | 1.61 µM | 0.207 µM | 5.72 µM | 0.14 µM | 0.815 µM | 0.149 µM | 8.91 µM | 0.114 µM | 2.64 µM | 6.61 µM | 80.5 µM | 1.61 µM | 44.2 µM | 0.279 µM | 2.48 µM
10 | Cn1cccc1-c1cc(-c2ccccc2)nc(N)c1C#N | > 100 µM | > 100 µM | > 100 µM | > 100 µM | 98.7 µM | > 100 µM | > 100 µM | > 100 µM | 0.761 µM | > 100 µM | > 100 µM | > 100 µM | > 100 µM | > 100 µM | > 100 µM | > 100 µM | > 100 µM | > 100 µM | > 100 µM | > 100 µM
11 | O=C1CC2OCC=C3CN4CCC5(C(=O)O)C(N1)C2C3CC45 (stereo not given) |  | > 100 µM |  | > 100 µM |  | > 100 µM |  | > 100 µM |  | > 100 µM |  | > 100 µM |  | > 100 µM |  | > 100 µM |  | > 100 µM |  | > 100 µM
12 | N#CC(C#N)C(c1ccccc1)c1ccccc1 |  | > 100 µM |  | > 100 µM |  | > 100 µM |  | > 100 µM |  | > 100 µM |  | > 100 µM |  | > 100 µM |  | > 100 µM |  | > 100 µM |  | > 100 µM
13 | O=C(/C=C/c1ccc(Cl)cc1Cl)c1ccc(Cl)cc1Cl | 23.7 µM | > 70.5 µM | 13.5 µM | 30.4 µM | 16.7 µM | 36.4 µM | 10.4 µM | 31.4 µM | 18.3 µM | 43.9 µM | 14.1 µM | 34.1 µM | 16.7 µM | 36.3 µM | 21.7 µM | 49.1 µM | 36 µM | > 92.8 µM | 1.63 µM | 
14 | COC(=O)Nc1nc2ccc(C(=O)c3cccs3)cc2[nH]1 | 0.0574 µM and 0.197 µM | 11.5 µM and > 100 µM | 0.0541 µM | 41 µM and > 100 µM | 0.0215 µM and 0.0666 µM | 6.43 µM and 2.06 µM |  | 42.5 µM | 0.0897 µM | 0.0753 µM and 0.415 µM | 0.147 µM |  |  | 1.36 µM | 0.545 µM | > 100 µM | 0.232 µM | 56.3 µM and > 100 µM | 20 µM | 12.1 µM and > 100 µM
15 | O=C(N/N=C/c1ccc(N(CCCl)CCCl)cc1)c1ccc(C(=O)N/N=C/c2ccc(N(CCCl)CCCl)cc2)cc1 | 86.8 µM | > 100 µM | 15.8 µM | > 100 µM | 18.1 µM | > 100 µM | 20.9 µM | > 100 µM |  | > 100 µM | 0.346 µM | 17.1 µM | 7.63 µM | > 100 µM | 71.5 µM | > 100 µM | 72.3 µM | > 100 µM | 2.13 µM | 33.3 µM
16 | Cc1c2ccccc2c(C)n2c1nc1cc(Cl)c(Cl)cc12 | > 100 µM | > 100 µM | > 100 µM | > 100 µM | 25.7 µM | > 100 µM | 14.3 µM | 72.1 µM | 17.5 µM | 9.71 µM and 77.1 µM | 34.6 µM | > 100 µM | > 100 µM | > 100 µM | > 100 µM | > 100 µM | 15.1 µM | > 100 µM | > 100 µM | > 100 µM
